Series [1] has as its target T1, human PXR (Homo sapiens, UniProt O75469).
T1 construct: expression vectors containing full length human PXR; expressed in transfected cells; host or cells: HepG2 (human hepatocellular carcinoma line), transient transfection with FuGENE
T1 sequence (O75469 1-434): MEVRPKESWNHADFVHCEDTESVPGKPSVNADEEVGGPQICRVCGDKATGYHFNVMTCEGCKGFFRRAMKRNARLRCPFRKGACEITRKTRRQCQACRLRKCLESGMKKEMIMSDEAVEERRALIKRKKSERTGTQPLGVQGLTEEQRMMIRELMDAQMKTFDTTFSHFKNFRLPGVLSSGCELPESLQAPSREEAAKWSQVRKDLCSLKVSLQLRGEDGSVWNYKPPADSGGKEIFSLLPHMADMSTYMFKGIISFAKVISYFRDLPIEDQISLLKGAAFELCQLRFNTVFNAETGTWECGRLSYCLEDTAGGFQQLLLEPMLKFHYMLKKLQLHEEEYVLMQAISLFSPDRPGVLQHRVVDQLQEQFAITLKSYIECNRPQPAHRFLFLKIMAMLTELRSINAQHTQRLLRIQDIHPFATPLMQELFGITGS
The series is described as follows: Human PXR Activation Assay. As to conditions: for EC50: HepG2 transfected with human PXR and CYP3A4 promoter luciferase, 24 h; for Emax at 24 h: human, percent maximum induction compared to 10 μM rifampicin. In kind it is cell-based. Here is the method:
Transactivation activity of PXR ligands was measured in a human hepatocellular carcinoma line (HepG2) batch transiently transfected using FuGENE™ with expression vectors containing full length human PXR and the human CYP3A4 promoter driving luciferase expression. Following transfection, cells are frozen until required for assay.
On day of assay, cells were recovered, counted on a CEDEX instrument then resuspended to a density of 50,000 cells/mL in phenol red-free DMEM-F12 supplemented with 10% charcoal/dextran-treated FBS. 20 μl of cell suspension was then dispensed to each well of white Nunc 384-well plates, containing […] of test compounds in DMSO. Cells were incubated for 24 h in the presence compound after which time […] of Steady-Lite™ luciferase substrate was added to each well. Luciferase activity was quantified by measurement on the Pherastar™ imager and activity was expressed as percent maximum induction as compared to induction by 10 μM rifampicin.

Series [2] can be described thus: Monkey PK Study. Type of series: in vivo. As to conditions: cynomolgus monkey; for MRT / clearance: male, plasma, nominal 1 mg/kg 60-minute intravenous infusion, cassette; for MRT: read-out: Monkey Pharmacokinetics MRT; for clearance: read-out: Monkey Pharmacokinetics Total Clearance. Here is the method: All studies were conducted after review by the GSK Institutional Animal Care and Use Committee and in accordance with the GSK Policy on the Care, Welfare and Treatment of Laboratory Animals. A pre-study health examination that included a physical exam and complete blood count was performed on the animals prior to use on study. A catheter was temporarily placed in a cephalic or saphenous vein for sample collection on the study day. The animals were fasted overnight prior to dosing; food provided after the 4-hour blood sample was collected. The intravenous and oral solution pharmacokinetic studies were carried out using a non-crossover design; a total of four male cynomolgus monkeys were used, two per route of administration.
(§1) The compounds used in this study were the compound of Example 1, herein, and Compound A (the compound of Example 1 of WO 2018/109646).
The dose for intravenous administration was prepared as a cassette of up to five test compounds in 20% Cavitron™ and 5% DMSO. The intravenous dose formulation was filtered through a 0.22-micron polytetrafluoroethylene (PTFE) filter prior to administration. The dose for oral solution administration was prepared as a cassette of up to five compounds in 6% Cavitron™ and 5% DMSO and was filtered through a 0.22-micron VWR PTFE filter prior to administration.
Each animal received a nominal dose of 1 mg/kg/compound (4 mL/kg dose volume) either as a 60-minute intravenous infusion or as an oral gavage. Blood samples (approximately 0.25 mL each) were collected from a cephalic or saphenous vein. Blood samples from animals that received the intravenous dose were collected prior to dosing and at target times of 15, 30, 45, 60 (before termination of the infusion), 62, 65, 75, 90, 120, 180, 240, 360, 480, 600, and 1440 minutes following the initiation of the intravenous infusion. For animals that received the oral dose, blood samples were collected prior to dosing and at target times of 5, 15, 30, 45, 60, 90, 120, 180, 240, 360, 480, 600, and 1440 minutes following oral gavage. Plasma was isolated from blood by centrifugation and a 30 μL aliquot was transferred to a non-heparinized tube, quick frozen on solid carbon dioxide and stored at approximately −80° C. until analyzed by liquid chromatography/tandem mass spectroscopy (LC/MS/MS) for test compound concentration.
Pharmacokinetic parameters for all in vivo PK studies were calculated using non-compartmental methods with Phoenix WinNonlin version 6.1.0 or 8.1.0. All parameters were calculated using actual blood sampling times and actual dosages for each animal. The extrapolated area under the curve (AUC0-inf) was determined using unweighted linear regression analysis of at least three log transformed concentrations visually assessed to be on the linear portion of the terminal elimination slope. Oral solution bioavailability was calculated in a non-crossover fashion using the mean intravenous dose and AUC0-inf values from the two intravenously dosed animals for the monkey PK study and in a crossover fashion for the rat PK study.

Series [3] is described as follows: Mouse PK Study. Type of series: in vivo. The conditions noted are these: male CD1 mice, 30 mg/kg oral suspension, blood. Here is the method: All studies were conducted after review by the GSK Institutional Animal Care and Use Committee and in accordance with the GSK Policy on the Care, Welfare and Treatment of Laboratory Animals. The oral suspension pharmacokinetic study was carried out on a single study day; a total of three male CD1 mice were used.
as §1
The oral suspension dose was prepared in 1% aqueous methylcellulose. Each animal received a nominal dose of 30 mg/kg (10 mL/kg dose volume) as an oral gavage. Blood samples (approximately 0.025 mL each) were collected from a tail vein. Blood samples were collected prior to dosing and at target times of 15, 30, 60, 120, 240, 480, and 1440 minutes following oral gavage. A 25 μL aliquot was added to a non-heparinized tube containing 25 μL water and quick frozen on solid carbon dioxide and stored at approximately −80° C. until analyzed by liquid chromatography/tandem mass spectroscopy (LC/MS/MS) for test compound concentration.
Pharmacokinetic parameters for all in vivo PK studies were calculated using non-compartmental methods with Phoenix WinNonlin version 6.1.0 or 8.1.0. All parameters were calculated using actual blood sampling times and actual dosages for each animal. […]

`CC[C@@H]1CN(Cc2cc([C@@H](CC(=O)O)c3ccc4c(nnn4C)c3C)ccc2C)Cc2nc(O)ccc2O1` [Example 1, (R)-3-(1,4-dimethyl-1H-benzo[d][1,2,3]triazol-5-yl)-3-(3-(((R)-2-ethyl-7-hydroxy-2,3-dihydropyrido[2,3-f][1,4]oxazepin-4(5H)-yl)methyl)-4-methylphenyl)propanoic acid]: in series [1], the EC50 was more than 50 µM and the Emax at 24 h turned out to be 10%. In series [2], the “fold improvement in mean residence time (MRT) versus Compound A” value was approximately 11 fold, the “fold reduction in total clearance (CL) versus Compound A” value is approximately 27 fold, the MRT came out at 18 h and the clearance worked out at 0.41 mL/min/kg. The “Mouse Pharmacokinetics Clearance/Bioavailability” value in series [3] is reported as 15.6 mL/min/kg.
As to `CC[C@@H]1CN(Cc2cc([C@@H](CC(=O)O)c3ccc4c(nnn4C)c3C)ccc2C)Cc2ncccc2O1` [Compound A, reference compound], in series [1], a half-maximal effect (EC50) was put at 25 µM and the Emax at 24 h came out at 56%. For the same compound, in series [2], the MRT amounted to 1.6 h and the clearance turned out to be 10.9 mL/min/kg. Moreover, the “Mouse Pharmacokinetics Clearance/Bioavailability” value in series [3] was found to be 31 mL/min/kg.

A word on the EC50: it is the concentration needed to bring the measured effect to its halfway point. In general, Emax refers to the size of the effect at its maximum, as opposed to the concentration needed. The MRT is a mean duration of stay, worked out from the concentration-time curve. For orientation: clearance means the volume of plasma or blood freed of the substance per unit of time.

These data come from patent publication US11945826B2, “Hydroxypyridoxazepines as NRF2 activators” (GLAXOSMITHKLINE INTELLECTUAL PROPERTY DEVELOPMENT LIMITED, priority 2019, dated 2024).
